Measurements from PMC2064570 (The Journal of Cell Biology, 2006).
Values belong to the compound of their own block, whether it stands above or below them.

How the values were obtained:
TbPTP1 [1] = biological target: T1, TbPTP1 (Trypanosoma brucei, UniProt Q38AT7); assay: malachite green phosphate release, Lineweaver-Burk; type: biochemical; conditions: 50 mM Hepes, 150 mM NaCl, pH 7.0, 37 °C
T1 sequence (Q38AT7 1-306): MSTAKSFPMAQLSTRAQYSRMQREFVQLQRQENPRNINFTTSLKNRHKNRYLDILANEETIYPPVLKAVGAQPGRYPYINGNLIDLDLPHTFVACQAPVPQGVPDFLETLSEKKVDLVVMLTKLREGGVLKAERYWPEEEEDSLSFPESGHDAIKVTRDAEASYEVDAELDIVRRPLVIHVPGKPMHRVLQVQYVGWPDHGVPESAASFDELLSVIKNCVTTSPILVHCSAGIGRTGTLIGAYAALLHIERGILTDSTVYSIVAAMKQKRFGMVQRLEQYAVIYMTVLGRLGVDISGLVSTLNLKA

TbPTP1 [2] = biological target: T1, TbPTP1; conditions: pNPP or pEGFR peptide as substrate
TbPTP1 [3] = biological target: T1, TbPTP1; assay: pNPP hydrolysis inhibition; type: biochemical; conditions: read-out: % inhibition at 10 μM

Structure (SMILES): N[C@@H](COP(=O)(O)O)C(=O)O [pSer]
Km (TbPTP1 [1]): phospho-Tyr (pTyr), and phospho-Ser (pSer)

% inhibition at 1 mM (TbPTP1 [2]): 90%
Structure (SMILES): [O]=[V]([OH])([OH])[OH] [sodium orthovanadate]

inhibition at 10 µM (TbPTP1 [3]): > 50%
Structure (SMILES): CCc1oc2cc(S(=O)(=O)Nc3ccc(S(=O)(=O)Nc4nccs4)cc3)ccc2c1C(=O)c1cc(Br)c(O)c(Br)c1 [BZ3, 3-(3,5-Dibromo-4-hydroxy-benzoyl)-2-ethyl-benzofuran-6-sulfonicacid-(4-(thiazol-2-ylsulfamyl)-phenyl)-amide]
